Activity calls are given as the source filed them. The rule behind the calls is not given here.
What was measured:
[1] = system: Mus musculus; assay: Anti-inflammatory activity against MOG35-55-induced experimental autoimmune encephalomyelitis C57BL/6 mouse model assessed as fold change in APP gene expression in brain at 300 mg/kg/day, ig for 14 days starting from 12th day of immunization by RT-qPCR analysis relative to control; type: functional; settings: time 14 day
[2] = system: Mus musculus; assay: Anti-inflammatory activity against MOG35-55-induced experimental autoimmune encephalomyelitis C57BL/6 mouse model assessed as reduction in CCL5 protein expression in brain at 300 to 600 mg/kg/day, ig for 14 days starting from 12th day of immunization by western blot analysis; type: functional, organism-based; settings: dose 300-600 mg/kg/day, time 14.0 day
[3] = system: Mus musculus; assay: Anti-inflammatory activity against MOG35-55-induced experimental autoimmune encephalomyelitis C57BL/6 mouse model assessed as increase in brain IL-4 level at 600 mg/kg/day, ig for 14 days starting from 12th day of immunization by ELISA; type: functional, organism-based; settings: time 14.0 day
[4] = system: Mus musculus; assay: Anti-inflammatory activity against MOG35-55-induced experimental autoimmune encephalomyelitis C57BL/6 mouse model assessed as fold change in CD4 gene expression in brain at 600 mg/kg/day, ig for 14 days starting from 12th day of immunization by RT-qPCR analysis relative to control; type: functional; settings: time 14 day
[5] = system: Mus musculus; assay: Anti-inflammatory activity against MOG35-55-induced experimental autoimmune encephalomyelitis C57BL/6 mouse model assessed as fold change in IL6 gene expression in brain at 600 mg/kg/day, ig for 14 days starting from 12th day of immunization by RT-qPCR analysis relative to control; type: functional; settings: time 14 day
[6] = system: Mus musculus; assay: Anti-inflammatory activity against MOG35-55-induced experimental autoimmune encephalomyelitis C57BL/6 mouse model assessed as reduction in TNF-alpha protein expression in brain at 300 to 600 mg/kg/day, ig for 14 days starting from 12th day of immunization by western blot analysis; type: functional, organism-based; settings: dose 300-600 mg/kg/day, time 14.0 day
[7] = system: Mus musculus; assay: Anti-inflammatory activity against MOG35-55-induced experimental autoimmune encephalomyelitis C57BL/6 mouse model assessed as reduction in serum Th1 cytokine level by measuring reduction in TNF-alpha level at 600 mg/kg/day, ig for 14 days starting from 12th day of immunization by ELISA; type: functional, organism-based; settings: time 14.0 day
[8] = system: Mus musculus; assay: Anti-inflammatory activity against MOG35-55-induced experimental autoimmune encephalomyelitis C57BL/6 mouse model assessed as reduction in serum monokines level by measuring reduction in IL-6 level at 600 mg/kg/day, ig for 14 days starting from 12th day of immunization by ELISA; type: functional, organism-based; settings: time 14.0 day
[9] = system: Mus musculus; assay: Anti-inflammatory activity against MOG35-55-induced experimental autoimmune encephalomyelitis C57BL/6 mouse model assessed as reduction in EAE symptoms by measuring neurological regeneration and behavioral impotence at 600 mg/kg/day, ig for 14 days starting from 12th day of immunization; type: functional, organism-based; settings: time 14.0 day
[10] = system: Mus musculus; assay: Anti-inflammatory activity against MOG35-55-induced experimental autoimmune encephalomyelitis C57BL/6 mouse model assessed as fold change in IL6 gene expression in brain at 300 mg/kg/day, ig for 14 days starting from 12th day of immunization by RT-qPCR analysis relative to control; type: functional; settings: time 14 day
[11] = system: Mus musculus; assay: Anti-inflammatory activity against MOG35-55-induced experimental autoimmune encephalomyelitis C57BL/6 mouse model assessed as fold change in C1S gene expression in brain at 600 mg/kg/day, ig for 14 days starting from 12th day of immunization by RT-qPCR analysis relative to control; type: functional; settings: time 14 day
[12] = system: Mus musculus; assay: Anti-inflammatory activity against MOG35-55-induced experimental autoimmune encephalomyelitis C57BL/6 mouse model assessed as fold change in CCL5 gene expression in brain at 600 mg/kg/day, ig for 14 days starting from 12th day of immunization by RT-qPCR analysis relative to control; type: functional; settings: time 14 day
[13] = system: Mus musculus; assay: Anti-inflammatory activity against MOG35-55-induced experimental autoimmune encephalomyelitis C57BL/6 mouse model assessed as fold change in CXCL9 gene expression in brain at 0.3 mg/kg/day, ig for 14 days starting from 12th day of immunization by RT-qPCR analysis relative to control; type: functional; settings: time 14 day
[14] = system: Mus musculus; assay: Anti-inflammatory activity against MOG35-55-induced experimental autoimmune encephalomyelitis C57BL/6 mouse model assessed as fold change in YWHAH gene expression in brain at 0.3 mg/kg/day, ig for 14 days starting from 12th day of immunization by RT-qPCR analysis relative to control; type: functional; settings: time 14 day
[15] = system: Mus musculus; assay: Anti-inflammatory activity against MOG35-55-induced experimental autoimmune encephalomyelitis C57BL/6 mouse model assessed as fold change in MBP gene expression in brain at 0.3 mg/kg/day, ig for 14 days starting from 12th day of immunization by RT-qPCR analysis relative to control; type: functional; settings: time 14 day
[16] = system: Mus musculus; assay: Anti-inflammatory activity against MOG35-55-induced experimental autoimmune encephalomyelitis C57BL/6 mouse model assessed as fold change in CXCL10 gene expression in brain at 0.15 mg/kg/day, ig for 14 days starting from 12th day of immunization by RT-qPCR analysis relative to control; type: functional; settings: time 14 day
[17] = system: Mus musculus; assay: Anti-inflammatory activity against MOG35-55-induced experimental autoimmune encephalomyelitis C57BL/6 mouse model assessed as proportion of brain infiltrating cells expressing CD45+/CD11b/c high surface markers at […]/day, ig for 14 days starting from 12th day of immunization by flow cytometry (reference value: 87.7%); type: functional; settings: time 14 day
[18] = system: Mus musculus; assay: Anti-inflammatory activity against MOG35-55-induced experimental autoimmune encephalomyelitis C57BL/6 mouse model assessed as fold change in GFAP gene expression in brain at 0.15 mg/kg/day, ig for 14 days starting from 12th day of immunization by RT-qPCR analysis relative to control; type: functional; settings: time 14 day
[19] = system: Mus musculus; assay: Anti-inflammatory activity against MOG35-55-induced experimental autoimmune encephalomyelitis C57BL/6 mouse model assessed as reduction in serum monokines level by measuring reduction in IL-1B level at 0.3 mg/kg/day, ig for 14 days starting from 12th day of immunization by ELISA; type: functional, organism-based; settings: time 14.0 day
[20] = system: Mus musculus; assay: Anti-inflammatory activity against MOG35-55-induced experimental autoimmune encephalomyelitis C57BL/6 mouse model assessed as methylation of CpG sites of IL11 gene promoter in brain at […], ig for 14 days starting from 12th day of immunization by PCR analysis (reference value: 61.1 +/-4%); type: functional; settings: time 14 day
[21] = system: Mus musculus; assay: Anti-inflammatory activity against MOG35-55-induced experimental autoimmune encephalomyelitis C57BL/6 mouse model assessed as upregulation of PLP protein expression in brain at 0.15 to 0.3 mg/kg/day, ig for 14 days starting from 12th day of immunization by western blot analysis; type: functional, organism-based; settings: dose 0.15-0.3 mg/kg/day, time 14.0 day
[22] = system: Mus musculus; assay: Anti-inflammatory activity against MOG35-55-induced experimental autoimmune encephalomyelitis C57BL/6 mouse model assessed as fold change in NFKB gene expression in brain at 0.3 mg/kg/day, ig for 14 days starting from 12th day of immunization by RT-qPCR analysis relative to control; type: functional; settings: time 14 day
[23] = system: Mus musculus; assay: Anti-inflammatory activity against MOG35-55-induced experimental autoimmune encephalomyelitis C57BL/6 mouse model assessed as fold change in YWHAH gene expression in brain at 0.15 mg/kg/day, ig for 14 days starting from 12th day of immunization by RT-qPCR analysis relative to control; type: functional; settings: time 14 day

CCCCCCCCCCCCCCCCCCCCCCCCC(=O)O[C@H]1CC[C@]2(C)[C@H]3CC=C4[C@@H]5CC(C)(C)CC[C@]5(CO)CC[C@@]4(C)[C@]3(C)CC[C@H]2C1(C)C
fold change (FC) [1]: -1.56 | Activity [2]: Active | Activity [3]: Active | fold change (FC) [4]: 1.55 | fold change (FC) [5]: -2.32 | Activity [6]: Active | Activity [7]: Active | Activity [8]: Active | Activity [9]: Active | fold change (FC) [10]: 3.18 | fold change (FC) [11]: 1.98 | fold change (FC) [12]: 1.27

CCCCCCCCc1ccc(CCC(N)(CO)CO)cc1 [FINGOLIMOD]
fold change (FC) [13]: -1.12 | fold change (FC) [14]: -1.26 | fold change (FC) [15]: 2.28 | fold change (FC) [16]: 5.21 | Activity [17]: 46.6% | fold change (FC) [18]: 2.62 | Activity [19]: Active | Activity [20]: 36.2% | Activity [21]: inactive | fold change (FC) [22]: 1.98 | fold change (FC) [23]: 1.1

— ChEMBL document CHEMBL5226375, “Synthesis and Comprehensive in Vivo Activity Profiling of Olean-12-en-28-ol, 3β-Pentacosanoate in Experimental Autoimmune Encephalomyelitis: A Natural Remyelinating and Anti-Inflammatory Agent” (J Nat Prod, 2023)
